This note sets out measurements from patent US7090846B2 (priority 1999, dated 2006).

One assay deals with MCF-7, or PC3 cells. Conditions: tumor cell cultures, in vitro; for comparison among the conjugates: inhibition on the colony formation: ranking among tested conjugates; for inhibition on the colony formation: serial dilutions, vs untreated control. The protocol: (§1) Cell Lines Used in the Experiments: • P388 mouse lymphocytic leukemia cell line, originated from Arthur D. Little Inc., Cambridge, Mass., USA, in vitro established in the National Institute of Oncology, Budapest, Hungary (Cancer Treat. Rep. 1986; 70: 279–284); • MCF-7 humane breast cancer cell line, originated from American Type Culture Collection; • PC3 humane prostate cancer cell line, originated from American Type Culture Collection;
MCF-7, or PC3 cells were plated into petri dishes, then in adequate medium and conditions, were incubated the cells with serial dilutions of the different polycation bioconjugates, prepared according to the invention. The colonies, consisting minimum 30 cells were then counted and the obtained values of three parallel petri dishes were averaged. Relative cloning efficiency was calculated by taking the control values as 100 per cent. (Cancer Detection and Prevention, 20(2): 146–152, 1996).

The test system of assay [1] is tumor cell cultures (P388, MCF-7, PC3). The conditions noted are these: in vitro; for comparison among the conjugates: inhibition on the cell proliferation: ranking among tested conjugates; for inhibition on the cell proliferation: serial dilutions, vs untreated control.
Description: as §1
Sulforodamine B (SRB) assay: approximately one to two thousand cells were put into each well of the special, small plastic tray (micro-well-plates). The cells were incubated in adequate medium and conditions and after adhering to the surface, were treated with serial dilutions of the different polycation bioconjugates, prepared according to the invention. At the end of the experiment the cells were fixed, stained with SRB, and the optical density, which is in direct proportion to the cell proliferation, was read in a CLS 962 ELISA microplate reader. Relative inhibition of proliferation was calculated by taking the control values as 100 per cent. (Cancer Detection and Prevention, 20(2): 146–152, 1996).
Cell counting method, with Neubauer-type chamber: in suspension cultures of exponentially growing cells, which were in adequate medium and conditions, were treated with serial dilutions of the different polycation bioconjugates, prepared according to the invention, and 24- and 48 hours following the treatment the cells were stained with tripan-blue, the treated and control cells were counted in a modified Neubauer-type hemocytometer chamber. Relative inhibition of proliferation was calculated by taking the control values as 100 per cent.

Assay [2] relates to transplantable rodent tumors (P-388 lymphoid leukemia, S-180 sarcoma). The conditions noted are these: mouse, in vivo.
Description: The tumor growth inhibitory effect of the polycation bioconjugates was studied on the following transpalatable rodent tumors: • P-388 lymphoid leukemia cells, originated from Cambridge, Mass., USA, were transplanted i.p. and s.c. into animals: BDF1 inbred male mice, weighing 22–24 g, specified pathogen free (SPF) breedings; • S-180 sarcoma, originated from Chester Beatty I., London, were transplanted s.c. into animals: BDFI inbred male mice, weighing 22–24 g, specified pathogen free (SPF) breedings.

Turning to “poly-(ε)-L-lysine-cisplatin-hydrogen-bromide”, in the assay with MCF-7, or PC3 cells, the “comparison among the conjugates: inhibition on the colony formation” value was “most effective inhibition” and the “inhibition on the colony formation” value is recorded as “dose dependent inhibition”. In assay [1], the “comparison among the conjugates: inhibition on the cell proliferation” value is “most effective inhibition” and the “inhibition on the cell proliferation” value was “dose dependent inhibition”.
In the case of “palmitoyl-poly-(ε)-L-lysine-hydrogen-bromide”, in the assay with MCF-7, or PC3 cells, the “comparison among the conjugates: inhibition on the colony formation” value is listed as “most effective inhibition” and the “inhibition on the colony formation” value is given as “dose dependent inhibition”. Also, the “inhibitory effect on transplantable rodent tumors (mean tumor volumes, tumor growth curves)” value in assay [2] is “significant inhibitory effect”. For the same substance, in assay [1], the “comparison among the conjugates: inhibition on the cell proliferation” value is listed as “most effective inhibition” and the “inhibition on the cell proliferation” value is on record as “dose dependent inhibition”.
With “cholesterol-hemisuccinyl-poly-(ε)-L-lysine-hydrogen-bromide”, the “inhibition on the colony formation” value with MCF-7, or PC3 cells is recorded as “dose dependent inhibition”. Further, in assay [2], the “inhibitory effect on transplantable rodent tumors (mean tumor volumes, tumor growth curves)” value was “significant inhibitory effect”. The “inhibition on the cell proliferation” value in assay [1] is listed as “dose dependent inhibition”.
